IC50 data for 21 compounds are collected here from paper PMC9611727, “Optimization of a Novel Mandelamide-Derived Pyrrolopyrimidine Series of PERK Inhibitors” (Pharmaceutics, 2022).

Read-outs that look alike come from different tables or passages of the source. Some results are limits rather than exact numbers.

One experiment concerns the target T1, PERK (Homo sapiens, UniProt Q9NZJ5).
T1 sequence (Q9NZJ5 30-1116): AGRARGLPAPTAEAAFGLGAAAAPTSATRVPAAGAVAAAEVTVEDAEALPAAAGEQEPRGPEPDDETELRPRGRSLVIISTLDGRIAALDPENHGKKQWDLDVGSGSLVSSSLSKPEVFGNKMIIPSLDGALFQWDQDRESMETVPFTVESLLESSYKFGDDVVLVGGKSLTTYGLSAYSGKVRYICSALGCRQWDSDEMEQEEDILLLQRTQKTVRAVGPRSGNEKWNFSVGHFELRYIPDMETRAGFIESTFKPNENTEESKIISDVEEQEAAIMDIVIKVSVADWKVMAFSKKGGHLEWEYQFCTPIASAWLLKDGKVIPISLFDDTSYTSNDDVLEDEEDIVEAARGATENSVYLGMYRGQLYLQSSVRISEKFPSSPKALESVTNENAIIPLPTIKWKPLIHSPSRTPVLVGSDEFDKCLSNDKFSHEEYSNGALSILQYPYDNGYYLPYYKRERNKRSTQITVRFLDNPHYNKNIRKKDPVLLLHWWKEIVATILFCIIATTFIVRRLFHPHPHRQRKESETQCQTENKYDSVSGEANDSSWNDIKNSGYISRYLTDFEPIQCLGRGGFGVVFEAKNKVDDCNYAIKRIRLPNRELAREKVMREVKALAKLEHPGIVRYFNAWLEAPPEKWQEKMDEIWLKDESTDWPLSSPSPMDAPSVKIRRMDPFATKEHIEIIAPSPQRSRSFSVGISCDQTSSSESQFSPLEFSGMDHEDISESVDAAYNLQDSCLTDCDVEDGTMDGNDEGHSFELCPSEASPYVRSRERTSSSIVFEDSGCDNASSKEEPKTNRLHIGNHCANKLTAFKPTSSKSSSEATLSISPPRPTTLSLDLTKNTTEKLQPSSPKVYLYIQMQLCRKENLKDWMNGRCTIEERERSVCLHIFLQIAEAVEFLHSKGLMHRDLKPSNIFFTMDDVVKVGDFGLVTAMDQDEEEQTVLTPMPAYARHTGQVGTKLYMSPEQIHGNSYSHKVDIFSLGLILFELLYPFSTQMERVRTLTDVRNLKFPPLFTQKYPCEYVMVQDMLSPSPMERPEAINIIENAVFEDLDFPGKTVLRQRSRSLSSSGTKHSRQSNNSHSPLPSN
Kind of experiment: PERK biochemical LanthaScreen TR-FRET assay (GFP-eIF2a phosphorylation). How it is done: Methods used to evaluate biochemical PERK activity are described and published elsewhere. In brief, biochemical PERK activity is evaluated using a LanthaScreenTM ([…]) TR-FRET assay to detect phosphorylation of a GFP-tagged eIF2a substrate (ThermoFisher). Excitation at […] of a terbium chelate donor fluorophore in an eIF2a antibody results in energy transfer to GFP acceptor fluorophore upon eIF2a phosphorylation by PERK. Reaction buffer was composed of 50 mM HEPES (pH 7.4), 10 mM MgCl2, 1 mM EGTA and 0.01% (v/v) BrijTM-35. Reactions were initiated by the addition of substrate and ATP, followed by incubation for 1 h at RT prior to addition of EDTA and the anti-peIF2a antibody. FRET was measured by an EnVision Plate Reader (PerkinElmer). Data were plotted as percent inhibition along a 10-point 3-fold dilution series of inhibitors. IC50 values were calculated using 4-parameter logistical fitting in XLFit.
(§1) The PERK activity of analog I was evaluated using cell-free biochemical assays. In these assays, PERK phosphorylation of eIF2a was assessed using a FRET-based labelled protein assay. Compounds were then evaluated for cellular activity by quantifying inhibition of eIF2a phosphorylation in HEK293 cells treated with the ER inducer tunicamycin [7].

A further experiment concerns p-eIF2α. Put plainly: Cellular PERK inhibition: p-eIF2a TR-FRET in tunicamycin-treated HEK293-EGFP-eIF2a cells. It is filed as cell-based. How it is done:
Methods used to evaluate in vitro cellular PERK inhibition are described and published elsewhere. In brief, stableHEK293 cells were created using lentiviral particles harboring a GFP-eIF2a expression vector. Transfectants were selected by puromycin and enriched using fluorescent cell sorting based on GFP expression. HEK293-EGFP-eIF2a cells were plated at 5000 cells/well in 384-well assay plates and incubated overnight. The following day, pyrrolopyrimidine analogs were added to wells using an Echo acoustic dispenser and incubated for 30 min. ER stress was induced by the addition of tunicamycin to the wells at […] for 2 h. Cells were lysed and peIF2a was evaluated using a TR-FRET system, as described above.
as §1
(In general: In TR-FRET formats the signal depends on donor and acceptor labels being close together.)

For a further experiment, the system named is MOLM-13 (FLT3-ITD). Kind of experiment: Cell viability assay, MOLM-13. The following applies: Homo sapiens. It is filed as cell-based.
A further experiment concerns Kasumi-1 (FLT3wt). Kind of experiment: Cell viability assay, Kasumi-1. The note with it: Homo sapiens. It is filed as cell-based.
[1] abbreviates: cell-free TR-FRET, GFP-eIF2a substrate, read-out: PERK IC50.
The mark [2] stands for this setting: Homo sapiens, HEK293 cells, tunicamycin-induced ER stress, read-out: p-eIF2α IC50.

Consider `Cc1nc(N)c2c(-c3ccc(NC(=O)[C@H](O)c4cccc(Cl)c4)cc3Cl)cn(C)c2n1` [Compound 55], for which the IC50 on PERK (setting [1]) is 1.6 nM; in the experiment on p-eIF2α (setting [2]), 17 nM.
Taken in the same sequence, the figures for `Cc1cccc([C@@H](O)C(=O)Nc2ccc(-c3cn(C)c4nc(C)nc(N)c34)c(Cl)c2)c1` [Compound 56] were 4.1 nM and 18 nM.
Turning to `CCc1cccc([C@@H](O)C(=O)Nc2ccc(-c3cn(C)c4nc(C)nc(N)c34)c(Cl)c2)c1` [Compound 57], the IC50 at PERK (bound stated, read-out: biochemical potency) was less than 5 nM; in the experiment with p-eIF2α (setting [2]) it was 14 nM; in the experiment on p-eIF2α (bound stated, read-out: cellular potency), less than 15 nM.
Turning to `Cc1nc(N)c2c(-c3ccc(NC(=O)[C@H](O)c4cccc(F)c4)cc3C(F)(F)F)cn(C)c2n1` [Compound 58], the IC50 is 8.5 nM on PERK (setting [1]) and 204 nM with p-eIF2α (setting [2]).
For `CCc1cc(NC(=O)[C@H](O)c2cccc(F)c2)ccc1-c1cn(C)c2nc(C)nc(N)c12` [Compound 59] the same measures were 4 nM and 41 nM.
For `COc1cc(NC(=O)[C@H](O)c2cccc(F)c2)ccc1-c1cn(C)c2nc(C)nc(N)c12` [Compound 60] the same measures were 236 nM and 1850 nM.
For `Cc1nc(N)c2c(-c3ccc(NC(=O)[C@H](O)c4cccc(F)c4)cc3OC(F)(F)F)cn(C)c2n1` [Compound 61] the same measures were 23 nM and 435 nM.
Regarding `Cc1nc(N)c2c(-c3ccc(NC(=O)[C@H](O)c4cccc(F)c4)cc3)cn(C)c2n1` [Compound 62], the figures for the IC50 on PERK (setting [1]) and with p-eIF2α (setting [2]) were 2 nM and 126 nM, respectively.
Turning to `Cc1nc(N)c2c(-c3ccc(NC(=O)[C@H](O)c4cccc(C(F)(F)F)c4)cc3)cn(C)c2n1` [Compound 63], the IC50 at PERK (setting [1]) was found to be 2.8 nM; in the experiment on p-eIF2α (setting [2]), 13 nM.
For `Cc1nc(N)c2c(-c3ccc(NC(=O)[C@H](O)c4cccc(Br)c4)cc3)cn(C)c2n1` [Compound 64] the same measures were 1.5 nM and 14 nM.
Regarding `Cc1nc(N)c2c(-c3c(C)cc(NC(=O)C(O)c4cccc(F)c4)cc3F)cn(C)c2n1` (stereo not shown) [Compound 67], the IC50 is 22 nM at PERK (setting [1]) and 78 nM in the experiment on p-eIF2α (setting [2]).
For `Cc1nc(N)c2c(-c3c(C)cc(NC(=O)C(O)c4cccc(F)c4)cc3C)cn(C)c2n1` (stereo not shown) [Compound 68] the same measures were 13 nM and 82 nM.
For `Cc1nc(N)c2c(-c3ccc(NC(=O)[C@H](O)c4cccc(F)c4)c(F)c3)cn(C)c2n1` [Compound 69], the IC50 on PERK (setting [1]) was determined as 1 nM; in the experiment on p-eIF2α (setting [2]) it was 26 nM.
For `Cc1nc(N)c2c(-c3cc(F)c(NC(=O)C(O)c4cccc(F)c4)cc3F)cn(C)c2n1` (stereo not shown) [Compound 71] the same measures were 1 nM and 34 nM.
For `Cc1nc(N)c2c(-c3ccc(NC(=O)[C@H](O)c4cccc(F)c4)nc3C)cn(C)c2n1` [Compound 72] the same measures were 17 nM and 105 nM.
For `Cc1nc(N)c2c(-c3ccc(NC(=O)[C@H](O)c4cccc(C(F)(F)F)c4)nc3C)cn(C)c2n1` [Compound 73] the same measures were 13 nM and 51 nM.
Turning to `Cc1nc(N)c2c(-c3cnc(NC(=O)[C@H](O)c4cccc(F)c4)cc3C)cn(C)c2n1` [Compound 74], the values for the IC50 on PERK (setting [1]) and in the experiment on p-eIF2α (setting [2]) were 8.3 nM and 146 nM, respectively.
For `Cc1nc(N)c2c(-c3cnc(NC(=O)[C@H](O)c4cccc(C(F)(F)F)c4)cc3C)cn(C)c2n1` [Compound 75] the same measures were 6.8 nM and 95 nM.
Taken in the same sequence, the figures for `Cc1nc(N)c2c(-c3cnc(NC(=O)[C@H](O)c4cccc(F)c4)nc3C)cn(C)c2n1` [Compound 76] were 647 nM and greater than 10000 nM.
As for `CC1(COc2ccc3c(c2)ncn3-c2ccc3cccc(N4CCC(N)CC4)c3n2)COC1` [Crenolanib], the values for the IC50 in the experiment with MOLM-13 (FLT3-ITD) and with Kasumi-1 (FLT3wt) were 3 nM and 80 nM, respectively.
Taken in the same sequence, the figures for `CCc1nc(C(N)=O)c(Nc2ccc(N3CCC(N4CCN(C)CC4)CC3)c(OC)c2)nc1NC1CCOCC1` [Gilteritinib] were 14 nM and 478 nM.
